What was measured:
[1] = system: Alicyclobacillus acidoterrestris ATCC 49025; assay: Germicidal efficacy of PAA and chlorine dioxide in dilute nutrient solution, apple juice and carrot juice, MPN viability count; type: cell-based; details: for LR: 22° C., 10 minutes contact, inoculum 1.40×10^7 CFU/ml; for reduction in the bacteria: all treated samples of Table 3 (5 and 10 ppm; nutrient solution, apple juice, carrot juice)
Method: In this experiment, the germicidal efficacy of various concentrations of PAA and chlorine dioxide (by dilution of CDG Solution 3000™, CDG Environmental LLC) at 22° C. after 10 minutes of contact time was determined in a dilute nutrient solution (Tryptone pancreatic digest of casein 1.0 g/L and NaCl 8.5 g/L), apple juice, and carrot juice. Alicyclobacillus acidoterrestris ATCC 49025 was used as the inoculum at a concentration of 1.40×10^7 CFU/ml. After the subscribed contact time, the PAA was neutralized with D/E broth and chlorine dioxide with a peroxide neutralizer, and a viability count for each of the juices was performed using the most probable number technique (MPN). The results are shown in Table 3, and graphically in FIG. 5.

[2] = system: Alicyclobacillus acidoterrestris; assay: Antimicrobial efficacy of PAA in organic apple and carrot juice, MPN viability count; type: cell-based; details: 22° C.
Method: In this experiment, the antimicrobial efficacy of PAA in organic apple and carrot juice was measured by challenging the juices with 1×10^7 CFU/ml of Alicyclobacillus acidoterrestris, a spore-forming thermophile commonly present in juice operations. Immediately following bacterial challenge, the juice was dosed with different concentrations of PAA and incubated at room temperature (22° C.) for 10 minutes without agitation. After the subscribed contact time, the PAA was neutralized with D/E broth and a viability count for each of the juices was performed using the most probable number technique (MPN).

[3] = Degradation of PAA in juices over time, residual PAA by titration with 0.1N sodium thiosulfate; type: physicochemical; details: for PAA concentration (below detectable limit): after 10 min at 195° F. (90.5° C.); for half-life at 100 ppm: room temperature
Method: The half life of PAA decreases with increasing temperature. The half life of 100 ppm solution of PAA in carrot juice (Brix=8.8) at room temperature is less than 20 min. Similarly, the half life of a 100 ppm solution of PAA in apple juice (Brix=11.4) at room temperature is less than 30 min. After 10 min at 195° F. (90.5° C.), the PAA concentration of a 20 ppm solution of PAA in either carrot (Brix=8.8) or apple juice (Brix=11.4) is below the detectable limit of 0.89 ppm by titration with 0.1N sodium thiosulfate. Thus, when the juice is pasteurized and sent to an evaporator for concentration, any remaining PAA in solution would be converted to acetic acid, water, and oxygen, thereby leaving no or substantially no PAA remaining in the final juice product 32. Briefly, during the titration process, any oxidizing species present in the sample converts a solution of potassium iodide to iodine in the presence of ammonium paramolybdate and phosphoric acid. Subsequently, a starch solution is added to form a deep blue color upon binding iodine. The PAA concentration can be calculated based on the volume of titrant needed to revert the deep blue color.
In this experiment, several juices were dosed with peracetic acid (PAA) (peroxyacetic acid 5.6%, hydrogen peroxide 26.5%) and kept at a controlled temperature (22° C. or 90° C.) for a given period of time to determine how the PAA would degrade over time. At the end of the given time period, the level of PAA remaining in the juice was measured by titration with 0.1N sodium thiosulfate. It can be seen that the PAA decomposed quite rapidly in the various juices, particularly when exposed to elevated temperatures.

[4] = Chlorine dioxide demand of apple and carrot juice (HACH DPD Method #10126); type: physicochemical; details: 22° C., 10 minutes
Method: In this experiment, apple juice and carrot juice were exposed to pure and stable chlorine dioxide (CDG Solution 3000™, CDG Environmental, LLC) in order to determine their respective chlorine dioxide demands, as determined by HACH DPD Method for Chlorine dioxide (Method #10126). The juice samples were exposed to the chlorine dioxide under room temperature conditions (22° C.), and then the residual concentrations determined 10 minutes after exposure. It can be seen that the chlorine dioxide demands were relatively high.

[5] = 5 ppm, dilute nutrient solution
[6] = 10 ppm, dilute nutrient solution
[7] = apple juice, Brix 11.4, exposed concentration 5 ppm
[8] = apple juice, Brix 11.4, exposed concentration 10 ppm
[9] = apple juice, Brix 11.4, exposed concentration 25 ppm
[10] = apple juice, Brix 11.4, exposed concentration 60 ppm
[11] = carrot juice, Brix 8.8, exposed concentration 5 ppm
[12] = carrot juice, Brix 8.8, exposed concentration 10 ppm
[13] = carrot juice, Brix 8.8, exposed concentration 25 ppm
[14] = carrot juice, Brix 8.8, exposed concentration 60 ppm

## CC(=O)OO [PAA, peracetic acid]
[1]; 5 ppm, apple juice
  LR: 4.34
[1]; 5 ppm, carrot juice
  LR: 4.18
[1]; [5]
  LR: 4.18
[1]; 10 ppm, apple juice
  LR: 4.48
[1]; 10 ppm, carrot juice
  LR: 4.34
[1]; [6]
  LR: 4.51
[1]
  reduction in the bacteria: > 4 log
[2]; PAA dose as low as 0.35 ppm, 10 minutes
  loss in cell viability: substantial loss in cell viability
[2]; all PAA-treated samples, 1×10^7 CFU/ml challenge, 10 minutes (FIG. 4)
  reduction in the bacteria: > 4 log
[3]; 20 ppm PAA in apple juice (Brix=11.4)
  PAA concentration (below detectable limit): < 0.89 ppm
[3]; 20 ppm PAA in carrot juice (Brix=8.8)
  PAA concentration (below detectable limit): < 0.89 ppm
[3]; 100 ppm solution of PAA in apple juice (Brix=11.4)
  half-life at 100 ppm: < 30 min
[3]; 100 ppm solution of PAA in carrot juice (Brix=8.8)
  half-life at 100 ppm: < 20 min
[3]; apple juice, Brix 11.4, PAA dosed 20 ppm, 90° C., 10 min, followed by 5 min in ice
  PAA read: <0.98 ppm
[3]; apple juice, Brix 11.4, PAA dosed 100 ppm, 22° C., 60 min
  PAA read: 19.6 ppm
[3]; apple juice, Brix 11.4, PAA dosed 100 ppm, 90° C., 10 min, followed by 5 min in ice
  PAA read: 15.7 ppm
[3]; carrot juice, Brix 8.8, PAA dosed 20 ppm, 90° C., 10 min, followed by 5 min in ice
  PAA read: <0.98 ppm
[3]; carrot juice, Brix 8.8, PAA dosed 100 ppm, 22° C., 60 min
  PAA read: 3.92 ppm
[3]; carrot juice, Brix 8.8, PAA dosed 100 ppm, 90° C., 10 min, followed by 5 min in ice
  PAA read: 2.94 ppm

## [O][Cl+][O-] [chlorine dioxide]
[1]; 5 ppm, apple juice
  LR: 0.65
[1]; 5 ppm, carrot juice
  LR: 1.12
[1]; [5]
  LR: 1.34
[1]; 10 ppm, apple juice
  LR: 1.18
[1]; 10 ppm, carrot juice
  LR: 1.57
[1]; [6]
  LR: 1.24
[1]
  reduction in the bacteria: ~1 log
[4]; [7]
  Demand: >4.95 ppm
  Read Concentration: <0.05 ppm
[4]; [8]
  Demand: 9.32 ppm
  Read Concentration: 0.68 ppm
[4]; [9]
  Demand: 24.3 ppm
  Read Concentration: 0.7 ppm
[4]; [10]
  Demand: 57.8 ppm
  Read Concentration: 2.2 ppm
[4]; [11]
  Demand: >4.95 ppm
  Read Concentration: <0.05 ppm
[4]; [12]
  Demand: >9.95 ppm
  Read Concentration: <0.05 ppm
[4]; [13]
  Demand: >24.97 ppm
  Read Concentration: <0.05 ppm
[4]; [14]
  Demand: 59.87 ppm
  Read Concentration: 0.13 ppm

Reference: US20130280392A1, “PROCESS FOR CONTROLLING MICROORGANISMS IN BEVERAGE PRODUCTS” (DeLaval Holding AB, priority 2011, published 2013)
